Measurements: paper PMC7619633, “Targeting of multiple tumor-associated antigens by individual T cell receptors during successful cancer immunotherapy” (Cell, 2023)

Assays:
[1] = system: MEL5 and MEL8 TCRs, MM909.24 TIL; test: Recognition of the 9-mer BST2 peptide (MIP-1β ELISA and tetramer staining); type: cell-based, human; settings: Figures S7C–S7F
Method: In brief, tetramers were assembled by 5 consecutive 20 min incubations of PE or APC conjugated streptavidin (both from Life Technologies) with pMHC monomer at 1:4 molar ratio, on ice in the dark. Once assembled, 1:100 protease inhibitor (set 1, Merk, London, UK) and PBS was added to a working concentration of 0.1 mg mL^-1 (with regards to the pMHC component). Tetramers were stored at 4°C in the dark and used within 3 days of assembly. To remove aggregates, tetramers were centrifuged at full speed in a microfuge for 1 min immediately before staining samples. Tetramer staining was performed as previously described.[52],[53] Briefly, T cell clones, lines, TILs or Jurkat cells were pre-treated with 50 nM of the protein kinase inhibitor Dasatinib at 37°C for 10-30 min in 100 µL of FACS buffer (PBS with 2% FBS), followed by the addition of 0.5 µg tetramer (with respect to pMHC component) without washing or pre-chilling, and incubated for 30 min on ice and in the dark. Cells were then washed in PBS and stained with VIVID for 5 mins at room temperature. […]
T cells were ‘rested’ overnight in R5 medium (R10 but with 5% FBS) to help reduce spontaneous release of chemokines and cytokines. […] T cell activation towards peptide was determined by MIP-1β release, and for cancer or healthy cell targets it was determined by TNF release. […]

[2] = system: MM909.15 TIL; test: HLA A*03:01-TAG tetramer staining of TIL from patient MM909.15; type: binding, human
Method: (§1) Staining was performed in 5 mL polystyrene test tubes (1 wash per step) or 96U well plates (3 washes per step), using 0.5-1 x10^5 cells per sample. Dead cells were detected with 2 µL of a 1:40 PBS dilution of LIVE/DEAD® Fixable Violet Dead Stain Kit (VIVID). Samples were acquired on a BD FACSCanto II (BD Biosciences, Franklin Lakes, NJ, USA) or ACEA NovoCyte 3005 with NovoSampler pro (ACEA Biosciences, Agilent, CA, US), then analyzed with FlowJo software (Tree Star Inc., Ashland, Oregon, US). Cells were gated on FSC-A versus SSC-A, single cells (FSC-A versus FSC-H), then viable cells (marker of choice versus VIVID). Cell sorting was performed on a BD FACS Aria III (BD Biosciences) by Central Biotechnology Services at Cardiff University. T cells for TCR sequencing were captured in RLT lysis buffer supplemented with 40 mM DTT or RNAprotect reagent (both from Qiagen). T cells or established cell lines sorted for culture were collected in their respective culture media supplemented with 25 µg mL^-1 of Amphotericin B (Thermo Fisher Scientific) and 10 µg mL^-1 of Ciprofloxacin (Ciproxin, Bayer, Leverkusen, Germany).
(§2) Monomeric pMHC were generated in house as described below and used to assemble tetramers as previously described.[52] […]

[3] = system: MM909.11 TIL; test: HLA A*03:01-TAG tetramer staining of TIL from patient MM909.11; type: binding, human
Method: as §1, §2

| Sequence | Recognition by TCRs of this study [1] | % of TIL stained with TAG tetramer ([2]; HLA A*03:01-RLSNRLLLR tetramer, MM909.15 TIL (passage-2), Fig S4N) [%] | TAG T cells as share of the anti-melanoma response of the TIL ([2]; MM909.15, from % tetramer+ cells and TIL reactivity toward autologous melanoma) [%] | % of TIL stained with TAG tetramer ([3]; HLA A*03:01-RLSNRLLLR tetramer, MM909.11 TIL (passage-2), Fig S4N) [%] | TAG T cells as share of the anti-melanoma response of the TIL ([3]; MM909.11, from % tetramer+ cells and TIL reactivity toward autologous melanoma) [%] |
| --- | --- | --- | --- | --- | --- |
| LLLGIGILV [BST2_9, previously described 9-mer BST2 peptide] | not recognized |  |  |  |  |
| RLSNRLLLR [TAG, HLA A*03:01-restricted peptide from cancer/testis tumor antigen gene (TAG); peptide and tetramer] |  | 0.05 | 1.1 | 0.67 | 17.5 |
